Data: patent US20070060610A1, “Methods and pharmaceutical formulations for increasing bioavailability” (priority 2005, published 2007)

Tested on: Caco-2 monolayers
Conditions: FIG. 1A; different pre-incubation times; Rhodamine 123 13 μM; TPGS 1000 33 μM on both sides
Description: Caco-2 cell culture and handling: Caco-2 cells, clone C2BBe1, were purchased from American Type Culture Collection (ATCC; Manassas, Va.) and used from passage 70-92 with Corning Incorp. Life Sciences (Acton, Mass.) polycarbonate membranes (3460; 12-well, pore size 0.4 μm, 1.13 cm^2). Cells were seeded at a density of ˜60,000 cells/cm^2 and grown at ˜37° C. in a controlled atmosphere of ˜5% CO2 with a relative humidity of ˜85%. The culture medium consisted of DMEM supplemented with 10% FBS, 1% non-essential amino acids, 100 μg/mL streptomycin and 100 U/mL penicillin. Transepithelial electrical resistance (TEER) was measured with a hand-held REMS electrical volt-ohm meter EVOM (World Precision Instruments; Sarasota, Fla.). […]
Using the transport assay, drug transport was assessed in absorptive (apical to basolateral, Ap→Bl) and secretory (Bl→Ap) directions. […]
Cell monolayers were agitated using an orbital shaker (IKA®—Werke GmbH & CO KG; Staufen, Germany) at 100±20 rpm. […] RHO was quantified with a Cytofluor-2 fluorescence plate reader (Perkin Elmer Biosystems; Weiterstadt, Germany) operating at excitation wavelength of 485 nm and emission wavelength of 530 nm to measure RHO.
Apparent Permeability and statistical analysis: flux was determined using receiver compartment RHO steady-state appearance rates (ΔQ/Δt). Papp across Caco-2 monolayers was calculated via: [formula] […]

## d-α-tocopheryl polyethylene glycol succinate [TPGS 1000]
  effect of pre-exposure on amount of compound transported across the cells (apical to basolateral): effectively increases the amount of compound transported across the cells (apical to basolateral) in a time-dependent fashion
